Experimental data as given in article PMC3961306, “Comparison of the Cancer Gene Targeting and Biochemical Selectivities of All Targeted Kinase Inhibitors Approved for Clinical Use” (PLoS ONE, 2014).

Tests used:
Experiment in all cases: Kinase profiling in a biochemical assay panel (mobility shift assays and ELISA), %-inhibition at 1 μM; selectivity entropy
[1] = molecular target: panel of more than 300 wild-type and mutant kinases (313 kinase panel) (Homo sapiens, UniProt P06239)
[2] = molecular target: panel of more than 300 wild-type and mutant kinases (313 kinase panel) (Homo sapiens, UniProt P35916)
[3] = molecular target: T1, panel of more than 300 wild-type and mutant kinases (313 kinase panel) (Homo sapiens, UniProt P51817); conditions: kinase PRKX; 1 μM
T1 sequence (P51817 1-358): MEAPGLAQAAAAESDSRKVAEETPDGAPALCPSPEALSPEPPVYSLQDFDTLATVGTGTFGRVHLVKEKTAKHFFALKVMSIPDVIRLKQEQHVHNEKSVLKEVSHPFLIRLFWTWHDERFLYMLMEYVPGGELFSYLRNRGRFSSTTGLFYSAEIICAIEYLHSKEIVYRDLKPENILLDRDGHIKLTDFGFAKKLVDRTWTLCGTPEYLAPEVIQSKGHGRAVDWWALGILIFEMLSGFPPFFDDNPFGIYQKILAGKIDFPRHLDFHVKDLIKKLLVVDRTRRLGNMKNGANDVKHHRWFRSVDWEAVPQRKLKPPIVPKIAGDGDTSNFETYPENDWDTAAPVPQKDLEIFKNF

[4] = molecular target: T2, panel of more than 300 wild-type and mutant kinases (313 kinase panel) (Homo sapiens, UniProt Q02156); conditions: kinase PKCε; 1 μM
T2 sequence (Q02156 1-737): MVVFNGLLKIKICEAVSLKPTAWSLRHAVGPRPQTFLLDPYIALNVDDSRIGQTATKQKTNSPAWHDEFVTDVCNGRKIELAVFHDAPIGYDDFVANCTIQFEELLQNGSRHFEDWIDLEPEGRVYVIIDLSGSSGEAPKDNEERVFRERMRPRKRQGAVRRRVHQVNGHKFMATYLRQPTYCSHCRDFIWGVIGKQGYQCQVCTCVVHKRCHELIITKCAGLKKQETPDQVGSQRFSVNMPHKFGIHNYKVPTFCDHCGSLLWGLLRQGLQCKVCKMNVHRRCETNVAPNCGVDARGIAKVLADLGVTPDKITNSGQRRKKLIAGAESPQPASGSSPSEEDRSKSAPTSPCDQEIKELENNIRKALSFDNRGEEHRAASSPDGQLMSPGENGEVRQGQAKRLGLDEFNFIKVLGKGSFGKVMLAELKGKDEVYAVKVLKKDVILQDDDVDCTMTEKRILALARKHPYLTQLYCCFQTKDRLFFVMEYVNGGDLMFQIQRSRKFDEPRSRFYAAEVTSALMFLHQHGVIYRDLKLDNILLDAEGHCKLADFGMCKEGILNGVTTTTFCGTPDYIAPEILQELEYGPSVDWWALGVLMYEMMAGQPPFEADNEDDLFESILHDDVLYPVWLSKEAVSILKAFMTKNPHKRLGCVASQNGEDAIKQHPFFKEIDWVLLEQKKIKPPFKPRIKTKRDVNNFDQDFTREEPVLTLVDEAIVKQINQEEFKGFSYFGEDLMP

[5] = molecular target: panel of more than 300 wild-type and mutant kinases (313 kinase panel) (Homo sapiens, UniProt Q13233); conditions: kinase MAP3K1; compound at 1 μM
[6] = molecular target: panel of more than 300 wild-type and mutant kinases (313 kinase panel) (Homo sapiens, UniProt Q13554)
[7] = molecular target: panel of more than 300 wild-type and mutant kinases (313 kinase panel) (Homo sapiens, UniProt Q15349); conditions: kinase RSK3; 1 μM
[8] = molecular target: panel of more than 300 wild-type and mutant kinases (313 kinase panel) (Homo sapiens, UniProt Q15375); conditions: kinase EPHA7; compound at 1 μM
[9] = molecular target: panel of more than 300 wild-type and mutant kinases (313 kinase panel) (Homo sapiens, UniProt Q8N4C8)
[10] = molecular target: T3, panel of more than 300 wild-type and mutant kinases (313 kinase panel) (Homo sapiens, UniProt Q9UHD2)
T3 sequence (Q9UHD2 1-729): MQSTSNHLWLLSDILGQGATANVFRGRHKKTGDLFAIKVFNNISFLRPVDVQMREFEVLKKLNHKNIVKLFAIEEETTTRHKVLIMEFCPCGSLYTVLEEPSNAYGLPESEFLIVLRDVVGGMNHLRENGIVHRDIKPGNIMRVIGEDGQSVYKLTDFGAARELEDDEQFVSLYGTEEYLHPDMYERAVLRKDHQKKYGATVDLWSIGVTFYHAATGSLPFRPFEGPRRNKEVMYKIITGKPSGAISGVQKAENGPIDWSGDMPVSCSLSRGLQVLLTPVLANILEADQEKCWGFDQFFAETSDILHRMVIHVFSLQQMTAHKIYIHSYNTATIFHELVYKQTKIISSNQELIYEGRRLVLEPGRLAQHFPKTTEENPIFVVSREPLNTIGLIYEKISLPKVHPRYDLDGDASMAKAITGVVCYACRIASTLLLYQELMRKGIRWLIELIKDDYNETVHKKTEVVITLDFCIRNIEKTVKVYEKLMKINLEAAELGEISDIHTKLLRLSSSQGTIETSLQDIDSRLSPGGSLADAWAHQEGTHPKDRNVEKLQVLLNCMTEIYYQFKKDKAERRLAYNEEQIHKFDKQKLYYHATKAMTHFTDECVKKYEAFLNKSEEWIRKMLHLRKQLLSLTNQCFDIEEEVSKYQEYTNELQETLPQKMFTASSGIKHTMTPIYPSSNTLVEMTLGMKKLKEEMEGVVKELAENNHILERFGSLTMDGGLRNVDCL

Sequence of panel of more than 300 wild-type and mutant kinases (313 kinase panel) (Homo sapiens, UniProt Q8N4C8) (Q8N4C8 whole entry, change not shown): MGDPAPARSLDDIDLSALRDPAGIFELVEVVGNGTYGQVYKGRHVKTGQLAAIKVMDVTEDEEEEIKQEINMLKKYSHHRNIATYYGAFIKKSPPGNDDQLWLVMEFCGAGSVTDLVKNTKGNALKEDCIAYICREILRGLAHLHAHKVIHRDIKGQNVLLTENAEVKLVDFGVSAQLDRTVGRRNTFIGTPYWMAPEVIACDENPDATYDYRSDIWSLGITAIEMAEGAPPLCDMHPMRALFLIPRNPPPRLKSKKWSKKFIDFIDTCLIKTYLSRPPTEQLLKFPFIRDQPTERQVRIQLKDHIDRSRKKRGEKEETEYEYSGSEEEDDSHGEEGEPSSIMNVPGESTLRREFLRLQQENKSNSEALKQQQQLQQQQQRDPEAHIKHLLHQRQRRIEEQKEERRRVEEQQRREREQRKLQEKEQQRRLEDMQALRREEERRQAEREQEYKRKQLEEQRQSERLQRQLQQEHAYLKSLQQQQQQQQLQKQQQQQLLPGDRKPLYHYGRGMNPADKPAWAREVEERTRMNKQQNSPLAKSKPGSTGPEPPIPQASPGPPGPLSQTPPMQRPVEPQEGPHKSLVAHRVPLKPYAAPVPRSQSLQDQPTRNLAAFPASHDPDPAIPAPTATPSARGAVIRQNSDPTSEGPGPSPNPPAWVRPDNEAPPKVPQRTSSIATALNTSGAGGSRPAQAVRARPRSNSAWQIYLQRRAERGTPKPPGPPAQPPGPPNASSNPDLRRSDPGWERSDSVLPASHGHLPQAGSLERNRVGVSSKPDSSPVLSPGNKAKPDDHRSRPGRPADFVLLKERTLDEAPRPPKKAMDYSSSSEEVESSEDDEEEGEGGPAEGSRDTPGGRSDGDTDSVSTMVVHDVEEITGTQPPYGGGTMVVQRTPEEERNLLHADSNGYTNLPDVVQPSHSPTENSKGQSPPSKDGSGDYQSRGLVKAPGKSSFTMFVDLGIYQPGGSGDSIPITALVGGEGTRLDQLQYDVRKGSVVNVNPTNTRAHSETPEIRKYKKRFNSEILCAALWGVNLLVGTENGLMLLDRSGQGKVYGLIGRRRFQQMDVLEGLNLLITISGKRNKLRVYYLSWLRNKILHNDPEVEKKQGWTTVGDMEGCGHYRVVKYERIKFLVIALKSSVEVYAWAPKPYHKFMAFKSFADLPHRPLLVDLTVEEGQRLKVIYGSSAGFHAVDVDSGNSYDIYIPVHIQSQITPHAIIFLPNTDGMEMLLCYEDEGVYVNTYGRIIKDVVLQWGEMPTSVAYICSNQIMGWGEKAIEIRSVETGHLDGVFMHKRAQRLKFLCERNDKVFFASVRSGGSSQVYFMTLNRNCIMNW
Sequence of panel of more than 300 wild-type and mutant kinases (313 kinase panel) (Homo sapiens, UniProt Q15375) (Q15375 28-998, change not shown): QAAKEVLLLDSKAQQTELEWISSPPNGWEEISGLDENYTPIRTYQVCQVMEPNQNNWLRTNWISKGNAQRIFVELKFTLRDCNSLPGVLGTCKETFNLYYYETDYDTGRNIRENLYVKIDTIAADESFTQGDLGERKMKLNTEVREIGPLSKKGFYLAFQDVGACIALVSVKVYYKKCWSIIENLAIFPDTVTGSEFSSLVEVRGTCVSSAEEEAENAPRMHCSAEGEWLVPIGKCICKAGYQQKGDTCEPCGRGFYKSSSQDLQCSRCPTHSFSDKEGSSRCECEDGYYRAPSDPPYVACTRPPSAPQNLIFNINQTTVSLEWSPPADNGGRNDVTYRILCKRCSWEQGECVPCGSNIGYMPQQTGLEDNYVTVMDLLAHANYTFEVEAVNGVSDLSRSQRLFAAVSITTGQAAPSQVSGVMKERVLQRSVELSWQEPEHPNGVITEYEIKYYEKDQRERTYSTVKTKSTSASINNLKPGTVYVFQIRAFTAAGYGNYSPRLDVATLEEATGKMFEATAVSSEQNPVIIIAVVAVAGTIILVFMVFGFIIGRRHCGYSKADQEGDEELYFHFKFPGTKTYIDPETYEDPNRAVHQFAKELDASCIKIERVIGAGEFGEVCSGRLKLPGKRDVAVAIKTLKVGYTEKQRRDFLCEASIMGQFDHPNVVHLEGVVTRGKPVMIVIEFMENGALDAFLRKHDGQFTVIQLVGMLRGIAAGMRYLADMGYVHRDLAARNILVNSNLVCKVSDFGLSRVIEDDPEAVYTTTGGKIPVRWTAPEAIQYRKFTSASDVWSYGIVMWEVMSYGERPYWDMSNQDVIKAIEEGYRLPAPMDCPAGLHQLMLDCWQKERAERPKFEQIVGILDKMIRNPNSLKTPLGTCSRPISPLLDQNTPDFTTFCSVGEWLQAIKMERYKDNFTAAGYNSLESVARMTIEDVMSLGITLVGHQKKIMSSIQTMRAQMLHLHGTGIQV
Sequence of panel of more than 300 wild-type and mutant kinases (313 kinase panel) (Homo sapiens, UniProt P06239) (P06239 whole entry, change not shown): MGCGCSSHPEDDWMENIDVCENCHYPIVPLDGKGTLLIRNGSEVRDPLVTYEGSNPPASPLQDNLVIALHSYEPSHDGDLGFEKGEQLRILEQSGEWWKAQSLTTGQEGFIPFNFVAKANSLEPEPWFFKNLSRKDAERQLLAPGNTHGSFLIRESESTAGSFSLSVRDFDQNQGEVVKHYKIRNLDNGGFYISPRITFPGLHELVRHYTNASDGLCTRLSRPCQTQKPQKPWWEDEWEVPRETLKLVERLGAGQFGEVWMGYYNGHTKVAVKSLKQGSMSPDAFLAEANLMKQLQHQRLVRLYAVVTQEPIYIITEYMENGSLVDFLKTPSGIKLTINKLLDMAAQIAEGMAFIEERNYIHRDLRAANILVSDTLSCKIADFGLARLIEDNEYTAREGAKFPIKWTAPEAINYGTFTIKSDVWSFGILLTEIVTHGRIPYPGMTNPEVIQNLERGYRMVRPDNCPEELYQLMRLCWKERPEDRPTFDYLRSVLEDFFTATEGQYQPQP
Sequence of panel of more than 300 wild-type and mutant kinases (313 kinase panel) (Homo sapiens, UniProt Q13233) (Q13233 whole entry, change not shown): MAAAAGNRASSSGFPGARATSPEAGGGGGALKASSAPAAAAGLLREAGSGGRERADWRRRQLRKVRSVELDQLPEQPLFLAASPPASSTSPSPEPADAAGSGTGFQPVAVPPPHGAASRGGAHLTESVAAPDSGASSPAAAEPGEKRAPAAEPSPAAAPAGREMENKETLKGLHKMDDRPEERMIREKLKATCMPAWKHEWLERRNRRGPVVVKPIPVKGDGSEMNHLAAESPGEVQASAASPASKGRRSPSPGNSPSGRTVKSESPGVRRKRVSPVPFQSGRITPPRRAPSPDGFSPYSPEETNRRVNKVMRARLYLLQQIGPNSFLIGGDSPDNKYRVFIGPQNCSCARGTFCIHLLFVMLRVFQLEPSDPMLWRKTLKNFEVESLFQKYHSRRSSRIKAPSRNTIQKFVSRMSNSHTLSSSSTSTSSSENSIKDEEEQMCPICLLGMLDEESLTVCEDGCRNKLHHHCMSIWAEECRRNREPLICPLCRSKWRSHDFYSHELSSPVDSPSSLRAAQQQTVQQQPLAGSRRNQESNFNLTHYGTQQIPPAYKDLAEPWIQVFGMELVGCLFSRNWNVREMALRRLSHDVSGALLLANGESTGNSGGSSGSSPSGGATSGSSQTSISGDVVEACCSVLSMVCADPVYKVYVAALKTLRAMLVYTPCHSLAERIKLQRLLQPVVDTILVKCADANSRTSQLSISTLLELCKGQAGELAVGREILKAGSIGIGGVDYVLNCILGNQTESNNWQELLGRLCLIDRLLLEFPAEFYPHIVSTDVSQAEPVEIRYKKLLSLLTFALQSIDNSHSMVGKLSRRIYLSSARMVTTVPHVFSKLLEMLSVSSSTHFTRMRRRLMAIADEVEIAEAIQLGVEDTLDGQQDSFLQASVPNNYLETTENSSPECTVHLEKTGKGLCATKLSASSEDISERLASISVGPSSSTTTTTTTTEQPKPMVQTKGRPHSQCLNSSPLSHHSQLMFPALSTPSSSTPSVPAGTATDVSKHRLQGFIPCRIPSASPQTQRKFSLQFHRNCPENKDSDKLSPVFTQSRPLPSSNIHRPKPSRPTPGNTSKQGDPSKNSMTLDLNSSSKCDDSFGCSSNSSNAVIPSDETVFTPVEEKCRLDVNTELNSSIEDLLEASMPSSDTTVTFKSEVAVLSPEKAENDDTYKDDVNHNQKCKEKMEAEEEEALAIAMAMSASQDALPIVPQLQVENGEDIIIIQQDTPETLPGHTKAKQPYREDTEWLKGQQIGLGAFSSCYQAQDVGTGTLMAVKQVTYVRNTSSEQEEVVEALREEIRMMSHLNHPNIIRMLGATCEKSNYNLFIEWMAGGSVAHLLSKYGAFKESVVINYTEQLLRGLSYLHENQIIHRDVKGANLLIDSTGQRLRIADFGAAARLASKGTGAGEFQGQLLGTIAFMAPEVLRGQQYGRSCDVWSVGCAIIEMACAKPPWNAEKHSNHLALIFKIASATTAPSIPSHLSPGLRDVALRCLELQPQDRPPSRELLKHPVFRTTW
Sequence of panel of more than 300 wild-type and mutant kinases (313 kinase panel) (Homo sapiens, UniProt Q13554) (Q13554 whole entry, change not shown): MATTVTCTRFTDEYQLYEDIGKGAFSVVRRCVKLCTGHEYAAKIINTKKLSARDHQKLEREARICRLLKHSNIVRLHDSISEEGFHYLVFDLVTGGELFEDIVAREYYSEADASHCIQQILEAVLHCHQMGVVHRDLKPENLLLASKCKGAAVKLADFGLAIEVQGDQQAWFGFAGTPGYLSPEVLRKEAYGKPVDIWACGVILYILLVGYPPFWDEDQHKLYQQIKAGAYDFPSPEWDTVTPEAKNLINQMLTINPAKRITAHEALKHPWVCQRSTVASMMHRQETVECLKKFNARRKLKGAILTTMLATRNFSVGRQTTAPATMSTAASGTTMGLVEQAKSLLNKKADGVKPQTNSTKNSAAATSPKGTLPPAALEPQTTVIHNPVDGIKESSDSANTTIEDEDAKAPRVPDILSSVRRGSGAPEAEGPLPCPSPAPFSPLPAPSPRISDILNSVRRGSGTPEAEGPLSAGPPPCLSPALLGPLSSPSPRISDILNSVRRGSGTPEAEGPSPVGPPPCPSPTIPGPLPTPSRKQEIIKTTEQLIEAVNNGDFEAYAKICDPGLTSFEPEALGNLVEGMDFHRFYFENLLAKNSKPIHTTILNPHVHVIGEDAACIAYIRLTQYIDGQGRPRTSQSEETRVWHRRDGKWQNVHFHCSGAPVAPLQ

Structure (SMILES)	%-inhibition of LCK ([1]; kinase LCK, compound at 1 μM) [%]	%-inhibition of FLT4 ([2]; kinase FLT4, compound at 1 μM) [%]	%-inhibition of PRKX [3] [%]	%-inhibition of PKCε [4] [%]	%-inhibition of MAP3K1 [5] [%]	%-inhibition, CaMK2β ([6]; kinase CaMK2β, 1 μM compound) [%]	%-inhibition of RSK3 [7] [%]	%-inhibition of EPHA7 [8] [%]	%-inhibition of MINK ([9]; kinase MINK, 1 μM) [%]	%-inhibition of TBK1 ([10]; kinase TBK1, 1 μM) [%]	%-inhibition of FLT4 ([2]; 1 µM) [%]	%-inhibition, CaMK2β ([6]; 1 µM) [%]	%-inhibition of MINK ([9]; 1 µM) [%]	%-inhibition of LCK ([1]; 1 µM) [%]	%-inhibition of TBK1 ([10]; 1 µM) [%]
CO[C@H]1C[C@@H]2CC[C@@H](C)[C@@](O)(O2)C(=O)C(=O)N2CCCC[C@H]2C(=O)O[C@H]([C@H](C)C[C@@H]2CC[C@@H](OCCO)[C@H](OC)C2)CC(=O)[C@H](C)/C=C(\C)[C@@H](O)[C@@H](OC)C(=O)[C@H](C)C[C@H](C)/C=C/C=C/C=C/1C [everolimus]	-2.67	-0.439	-4.49	-2.79	7	-10	-9	-4	-7.49	-5	–	–	–	–	–
COc1cc2nccc(Oc3ccc(NC(=O)C4(C(=O)Nc5ccc(F)cc5)CC4)cc3)c2cc1OC [cabozantinib]	98	100	-2.42	3	36	-4	0.355	99	-2	-0.506	–	–	–	–	–
N#CC[C@H](C1CCCC1)n1cc(-c2ncnc3[nH]ccc23)cn1 [ruxolitinib]	21	–	16	-2.79	-10	–	9	7.51	–	21	36	22	-6	–	–
CCCS(=O)(=O)Nc1ccc(F)c(C(=O)c2c[nH]c3ncc(-c4ccc(Cl)cc4)cc23)c1F [vemurafenib]	81	24	-3.45	-8	13	-6.64	-0.497	-0.639	10	-0.81	–	–	–	–	–
Cc1cn(-c2cc(NC(=O)c3ccc(C)c(Nc4nccc(-c5cccnc5)n4)c3)cc(C(F)(F)F)c2)cn1 [nilotinib]	–	17	6	-0.567	-18	–	11	19	3	–	–	-21	–	90	6
CC(=O)Nc1cccc(-n2c(=O)n(C3CC3)c(=O)c3c(Nc4ccc(I)cc4F)n(C)c(=O)c(C)c32)c1 [trametinib]	-7	1.51	-1.19	6	99	0.738	-5	-5	-1.8	-4.47	–	–	–	–	–
